Experimental data as given in ChEMBL document CHEMBL4828709, “Discovery of 2,4-pyrimidinediamine derivatives as potent dual inhibitors of ALK and HDAC” (Eur J Med Chem, 2021).

Tests used:
[1] = system: SH-SY5Y; test: cells; format: functional, cell-based; details: Homo sapiens, 72 h
Description: Antiproliferative activity against human SH-SY5Y cells harboring ALK F1174L mutant assessed as inhibition of cell proliferation measured after 72 hrs by CCK8 assay

[2] = system: HepG2; test: cells; format: functional, cell-based; details: Homo sapiens, HepG2, 72 h
Description: Antiproliferative activity against human HepG2 cells assessed as inhibition of cell proliferation measured after 72 hrs by CCK8 assay

[3] = cells; format: functional, cell-based; details: Homo sapiens, SKNBE2, 72 h
Description: Antiproliferative activity against human SKNBE2 cells harboring wild type ALK assessed as inhibition of cell proliferation measured after 72 hrs by CCK8 assay

[4] = system: NCI-H2228; test: cells; format: functional, cell-based; details: Homo sapiens, NCI-H2228, 72 h
[5] = system: MDA-MB-231; test: cells; format: functional, cell-based; details: Homo sapiens, MDA-MB-231, 72 h
Description: Antiproliferative activity against human MDA-MB-231 cells assessed as inhibition of cell proliferation measured after 72 hrs by CCK8 assay

[6] = system: MDA-MB-231; test: Induction of apoptosis in human MDA-MB-231 cells assessed as viable cells at 1 uM measured after 24 hrs by Annexin V-FITC/PI staining based flowcytometry (reference value: 93.14%); format: functional; details: read-out: Activity
[7] = system: MDA-MB-231; test: Induction of apoptosis in human MDA-MB-231 cells assessed as early apoptotic cells at 1 uM measured after 24 hrs by Annexin V-FITC/PI staining based flowcytometry ( Rvb = […]%); format: functional
[8] = system: MDA-MB-231; test: Induction of apoptosis in human MDA-MB-231 cells assessed as late apoptotic cells at 1 uM measured after 24 hrs by Annexin V-FITC/PI staining based flowcytometry ( Rvb = 5.28%); format: functional
[9] = system: MDA-MB-231; test: Induction of apoptosis in human MDA-MB-231 cells assessed as necrotic cells at 1 uM measured after 24 hrs by Annexin V-FITC/PI staining based flowcytometry (reference value: 0.94%); format: functional
[10] = system: SH-SY5Y; test: Induction of apoptosis in human SH-SY5Y cells assessed as viable cells at 1 uM measured after 24 hrs by Annexin V-FITC/PI staining based flowcytometry (reference value: 77.05%); format: functional; details: read-out: Activity
[11] = system: SH-SY5Y; test: Induction of apoptosis in human SH-SY5Y cells assessed as early apoptotic cells at 1 uM measured after 24 hrs by Annexin V-FITC/PI staining based flowcytometry (reference value: 0.82%); format: functional
[12] = system: SH-SY5Y; test: Induction of apoptosis in human SH-SY5Y cells assessed as late apoptotic cells at 1 uM measured after 24 hrs by Annexin V-FITC/PI staining based flowcytometry (reference value: 14.32%); format: functional
[13] = system: SH-SY5Y; test: Induction of apoptosis in human SH-SY5Y cells assessed as necrotic cells at 1 uM measured after 24 hrs by Annexin V-FITC/PI staining based flowcytometry (reference value: 7.81%); format: functional
[14] = target: T1, Histone deacetylase 1 (Homo sapiens, UniProt Q13547); details: Sf9, dose 10.0 nM, time 15.0 min
T1 sequence (Q13547 whole entry): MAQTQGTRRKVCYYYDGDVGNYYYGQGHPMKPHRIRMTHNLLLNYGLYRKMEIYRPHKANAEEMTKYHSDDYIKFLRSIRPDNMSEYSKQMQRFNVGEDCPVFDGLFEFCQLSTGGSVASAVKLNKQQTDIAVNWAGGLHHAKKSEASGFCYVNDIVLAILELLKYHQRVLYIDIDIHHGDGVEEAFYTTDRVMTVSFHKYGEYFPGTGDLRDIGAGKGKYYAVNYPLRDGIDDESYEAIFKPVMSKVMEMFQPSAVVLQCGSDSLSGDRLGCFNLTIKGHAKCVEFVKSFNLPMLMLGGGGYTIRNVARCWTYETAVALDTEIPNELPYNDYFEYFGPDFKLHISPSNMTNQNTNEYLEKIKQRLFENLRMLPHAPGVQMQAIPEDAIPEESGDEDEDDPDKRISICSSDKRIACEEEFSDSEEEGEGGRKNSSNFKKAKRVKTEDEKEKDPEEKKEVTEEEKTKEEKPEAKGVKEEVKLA

[15] = target: T1, Histone deacetylase 1; details: Sf9, dose 100.0 nM, time 15.0 min
[16] = target: T2, ALK tyrosine kinase receptor (Homo sapiens, UniProt Q9UM73); test: Inhibition of ALK (unknown origin) at 10 nM preincubated for 10 mins followed by addition of substrate and ATP for 25 mins by caliper EZ reader method; details: time 35.0 min
Target sequence in this assay (Q9UM73 19-1620 limits assumed): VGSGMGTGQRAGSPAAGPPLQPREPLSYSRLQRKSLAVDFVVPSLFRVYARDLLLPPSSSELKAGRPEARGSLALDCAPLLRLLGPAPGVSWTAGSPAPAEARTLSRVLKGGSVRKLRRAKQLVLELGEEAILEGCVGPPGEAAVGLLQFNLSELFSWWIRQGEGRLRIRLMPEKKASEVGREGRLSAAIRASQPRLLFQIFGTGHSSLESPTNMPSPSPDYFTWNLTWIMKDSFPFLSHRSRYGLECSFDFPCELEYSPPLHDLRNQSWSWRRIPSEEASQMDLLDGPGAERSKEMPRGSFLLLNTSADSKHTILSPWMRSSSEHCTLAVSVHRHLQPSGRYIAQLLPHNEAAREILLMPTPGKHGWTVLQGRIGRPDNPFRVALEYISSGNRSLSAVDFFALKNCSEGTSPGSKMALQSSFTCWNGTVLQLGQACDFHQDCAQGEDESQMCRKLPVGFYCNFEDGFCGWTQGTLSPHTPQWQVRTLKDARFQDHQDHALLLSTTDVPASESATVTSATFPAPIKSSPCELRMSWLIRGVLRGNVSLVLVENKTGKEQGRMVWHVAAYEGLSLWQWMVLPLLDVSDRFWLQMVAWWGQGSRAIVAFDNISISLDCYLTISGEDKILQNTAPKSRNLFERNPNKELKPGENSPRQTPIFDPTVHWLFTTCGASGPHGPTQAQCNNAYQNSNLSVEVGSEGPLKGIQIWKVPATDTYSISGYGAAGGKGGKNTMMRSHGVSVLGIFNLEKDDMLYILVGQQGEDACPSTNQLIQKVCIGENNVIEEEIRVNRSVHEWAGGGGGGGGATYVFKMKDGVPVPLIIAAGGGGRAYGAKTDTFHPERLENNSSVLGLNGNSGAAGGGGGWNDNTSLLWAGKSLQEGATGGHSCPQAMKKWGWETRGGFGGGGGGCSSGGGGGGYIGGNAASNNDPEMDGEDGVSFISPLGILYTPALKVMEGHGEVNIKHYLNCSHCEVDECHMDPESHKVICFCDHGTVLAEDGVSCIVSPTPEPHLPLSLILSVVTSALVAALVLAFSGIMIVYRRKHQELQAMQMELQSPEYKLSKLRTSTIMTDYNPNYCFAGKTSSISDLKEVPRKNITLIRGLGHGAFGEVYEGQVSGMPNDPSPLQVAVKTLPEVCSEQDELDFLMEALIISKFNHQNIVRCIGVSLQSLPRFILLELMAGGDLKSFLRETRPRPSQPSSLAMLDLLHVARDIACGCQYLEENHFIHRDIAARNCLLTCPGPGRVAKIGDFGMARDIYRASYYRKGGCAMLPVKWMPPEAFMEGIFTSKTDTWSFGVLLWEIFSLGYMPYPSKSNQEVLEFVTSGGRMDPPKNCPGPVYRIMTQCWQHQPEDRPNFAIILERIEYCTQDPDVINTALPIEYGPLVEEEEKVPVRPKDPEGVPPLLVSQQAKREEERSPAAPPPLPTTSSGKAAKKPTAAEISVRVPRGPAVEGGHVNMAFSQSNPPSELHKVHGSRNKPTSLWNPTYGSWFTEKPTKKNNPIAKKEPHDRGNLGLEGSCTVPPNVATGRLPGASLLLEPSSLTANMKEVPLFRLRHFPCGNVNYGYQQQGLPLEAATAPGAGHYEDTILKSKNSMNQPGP

[17] = target: T2, ALK tyrosine kinase receptor; test: Inhibition of ALK (unknown origin) at 100 nM preincubated for 10 mins followed by addition of substrate and ATP for 25 mins by caliper EZ reader method; details: time 35.0 min
Target sequence in this assay (Q9UM73 19-1620 limits assumed): as above

[18] = system: A549; test: cells; format: functional, cell-based; details: Homo sapiens, A549, 72 h
Description: Antiproliferative activity against human A549 cells assessed as inhibition of cell proliferation measured after 72 hrs by CCK8 assay

[19] = target: Histone deacetylase 2 (Homo sapiens, UniProt Q92769)
Sequence of Histone deacetylase 2 (Q92769 whole entry): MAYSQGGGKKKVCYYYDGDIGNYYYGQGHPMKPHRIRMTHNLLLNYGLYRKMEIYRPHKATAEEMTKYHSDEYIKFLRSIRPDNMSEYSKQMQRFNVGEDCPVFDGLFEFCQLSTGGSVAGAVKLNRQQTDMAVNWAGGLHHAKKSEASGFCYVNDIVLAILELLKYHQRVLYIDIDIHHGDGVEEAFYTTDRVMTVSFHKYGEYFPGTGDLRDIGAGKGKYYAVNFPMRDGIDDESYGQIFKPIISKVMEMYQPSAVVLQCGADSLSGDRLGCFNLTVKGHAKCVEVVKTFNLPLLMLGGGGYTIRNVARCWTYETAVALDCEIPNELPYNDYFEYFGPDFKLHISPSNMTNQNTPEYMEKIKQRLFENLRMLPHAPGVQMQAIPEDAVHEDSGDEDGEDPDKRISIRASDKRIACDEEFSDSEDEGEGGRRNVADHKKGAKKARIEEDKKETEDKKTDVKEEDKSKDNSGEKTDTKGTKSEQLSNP
Description: Inhibition of HDAC2 (unknown origin)

[20] = target: T2, ALK tyrosine kinase receptor
Target sequence in this assay (Q9UM73 whole entry): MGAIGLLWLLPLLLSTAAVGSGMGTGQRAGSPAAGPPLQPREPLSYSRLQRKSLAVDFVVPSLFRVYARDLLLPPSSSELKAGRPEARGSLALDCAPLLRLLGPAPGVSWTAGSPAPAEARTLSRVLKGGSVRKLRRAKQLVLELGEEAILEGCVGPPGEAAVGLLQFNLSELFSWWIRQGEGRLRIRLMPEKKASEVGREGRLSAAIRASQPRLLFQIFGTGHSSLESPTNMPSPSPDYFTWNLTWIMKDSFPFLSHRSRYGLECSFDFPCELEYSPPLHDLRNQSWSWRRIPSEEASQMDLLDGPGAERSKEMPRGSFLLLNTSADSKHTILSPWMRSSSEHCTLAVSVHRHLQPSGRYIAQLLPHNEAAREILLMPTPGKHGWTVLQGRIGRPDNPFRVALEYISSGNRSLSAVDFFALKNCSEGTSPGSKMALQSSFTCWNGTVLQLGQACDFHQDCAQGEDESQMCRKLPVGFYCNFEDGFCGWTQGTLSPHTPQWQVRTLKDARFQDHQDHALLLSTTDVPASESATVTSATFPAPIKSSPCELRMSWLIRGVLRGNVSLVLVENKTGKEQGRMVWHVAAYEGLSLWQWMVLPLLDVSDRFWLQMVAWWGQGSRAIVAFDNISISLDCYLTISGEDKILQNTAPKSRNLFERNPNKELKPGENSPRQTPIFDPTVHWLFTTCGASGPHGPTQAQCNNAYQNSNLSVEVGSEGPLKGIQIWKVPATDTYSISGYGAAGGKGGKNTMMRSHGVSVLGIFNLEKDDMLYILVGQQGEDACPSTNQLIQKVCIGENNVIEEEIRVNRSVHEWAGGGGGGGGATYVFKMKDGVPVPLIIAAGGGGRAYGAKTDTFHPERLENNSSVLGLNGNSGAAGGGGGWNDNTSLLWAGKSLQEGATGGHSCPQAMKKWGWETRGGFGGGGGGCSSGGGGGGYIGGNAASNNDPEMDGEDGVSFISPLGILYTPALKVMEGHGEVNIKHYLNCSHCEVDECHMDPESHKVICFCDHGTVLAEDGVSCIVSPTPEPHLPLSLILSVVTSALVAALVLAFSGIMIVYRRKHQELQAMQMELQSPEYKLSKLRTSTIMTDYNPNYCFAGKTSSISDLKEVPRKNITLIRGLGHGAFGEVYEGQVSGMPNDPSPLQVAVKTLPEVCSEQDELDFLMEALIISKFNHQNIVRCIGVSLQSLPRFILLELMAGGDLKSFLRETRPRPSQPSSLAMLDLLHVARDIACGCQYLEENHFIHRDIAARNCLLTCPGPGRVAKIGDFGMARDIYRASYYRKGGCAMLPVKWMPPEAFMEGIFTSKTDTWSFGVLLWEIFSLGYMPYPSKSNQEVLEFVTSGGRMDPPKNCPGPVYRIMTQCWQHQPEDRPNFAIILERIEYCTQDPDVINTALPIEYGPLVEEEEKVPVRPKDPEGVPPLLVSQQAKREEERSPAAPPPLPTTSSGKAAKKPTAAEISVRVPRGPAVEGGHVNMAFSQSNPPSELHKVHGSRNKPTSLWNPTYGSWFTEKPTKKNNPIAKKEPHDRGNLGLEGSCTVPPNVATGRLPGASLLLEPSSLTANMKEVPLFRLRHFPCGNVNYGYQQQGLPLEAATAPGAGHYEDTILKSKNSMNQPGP
Description: Inhibition of ALK (unknown origin) preincubated for 10 mins followed by addition of substrate and ATP for 25 mins by caliper EZ reader method

[21] = target: ALK tyrosine kinase receptor (Homo sapiens, UniProt Q9UM73, L1196M)
Sequence of ALK tyrosine kinase receptor (Homo sapiens, UniProt Q9UM73, L1196M) (Q9UM73 19-1620 L1196M limits assumed): as the sequence (Q9UM73 19-1620 limits assumed) above, with L1178M counted along it

[22] = target: ALK tyrosine kinase receptor (Homo sapiens, UniProt Q9UM73, G1202R)
Sequence of ALK tyrosine kinase receptor (Homo sapiens, UniProt Q9UM73, G1202R) (Q9UM73 19-1620 G1202R limits assumed): as the sequence (Q9UM73 19-1620 limits assumed) above, with G1184R counted along it

[23] = system: HepG2; test: Potency index, ratio of ceritinib IC50 to test compound IC50 for human HepG2 cells assessed as inhibition of cell proliferation measured after 72 hrs by CCK8 assay; format: functional
[24] = system: HepG2; test: Potency index, ratio of crizotinib IC50 to test compound IC50 for human HepG2 cells assessed as inhibition of cell proliferation measured after 72 hrs by CCK8 assay; format: functional
[25] = system: A549; test: Potency index, ratio of ceritinib IC50 to test compound IC50 for human A549 cells assessed as inhibition of cell proliferation measured after 72 hrs by CCK8 assay; format: functional
[26] = system: A549; test: Potency index, ratio of crizotinib IC50 to test compound IC50 for human A549 cells assessed as inhibition of cell proliferation measured after 72 hrs by CCK8 assay; format: functional
[27] = Potency index, ratio of ceritinib IC50 to test compound IC50 for human SKNBE2 cells harboring wild type ALK assessed as inhibition of cell proliferation measured after 72 hrs by CCK8 assay; format: functional
[28] = Potency index, ratio of crizotinib IC50 to test compound IC50 for human SKNBE2 cells harboring wild type ALK assessed as inhibition of cell proliferation measured after 72 hrs by CCK8 assay; format: functional
[29] = system: SH-SY5Y; test: Potency index, ratio of ceritinib IC50 to test compound IC50 for human SH-SY5Y cells harboring ALK F1174L mutant assessed as inhibition of cell proliferation measured after 72 hrs by CCK8 assay; format: functional
[30] = system: SH-SY5Y; test: Potency index, ratio of crizotinib IC50 to test compound IC50 for human SH-SY5Y cells harboring ALK F1174L mutant assessed as inhibition of cell proliferation measured after 72 hrs by CCK8 assay; format: functional
[31] = system: NCI-H2228; test: Potency index, ratio of ceritinib IC50 to test compound IC50 for human NCI-H2228 cells harboring EML4/ALK […] assessed as inhibition of cell proliferation measured after 72 hrs by CCK8 assay; format: functional
[32] = system: NCI-H2228; test: Potency index, ratio of crizotinib IC50 to test compound IC50 for human NCI-H2228 cells harboring EML4/ALK […] assessed as inhibition of cell proliferation measured after 72 hrs by CCK8 assay; format: functional
[33] = system: MDA-MB-231; test: Potency index, ratio of ceritinib IC50 to test compound IC50 for human MDA-MB-231 cells assessed as inhibition of cell proliferation measured after 72 hrs by CCK8 assay; format: functional
[34] = system: MDA-MB-231; test: Potency index, ratio of crizotinib IC50 to test compound IC50 for human MDA-MB-231 cells assessed as inhibition of cell proliferation measured after 72 hrs by CCK8 assay; format: functional
[35] = target: T3, Protein deacetylase HDAC6 (Homo sapiens, UniProt Q9UBN7)
T3 sequence (Q9UBN7 whole entry): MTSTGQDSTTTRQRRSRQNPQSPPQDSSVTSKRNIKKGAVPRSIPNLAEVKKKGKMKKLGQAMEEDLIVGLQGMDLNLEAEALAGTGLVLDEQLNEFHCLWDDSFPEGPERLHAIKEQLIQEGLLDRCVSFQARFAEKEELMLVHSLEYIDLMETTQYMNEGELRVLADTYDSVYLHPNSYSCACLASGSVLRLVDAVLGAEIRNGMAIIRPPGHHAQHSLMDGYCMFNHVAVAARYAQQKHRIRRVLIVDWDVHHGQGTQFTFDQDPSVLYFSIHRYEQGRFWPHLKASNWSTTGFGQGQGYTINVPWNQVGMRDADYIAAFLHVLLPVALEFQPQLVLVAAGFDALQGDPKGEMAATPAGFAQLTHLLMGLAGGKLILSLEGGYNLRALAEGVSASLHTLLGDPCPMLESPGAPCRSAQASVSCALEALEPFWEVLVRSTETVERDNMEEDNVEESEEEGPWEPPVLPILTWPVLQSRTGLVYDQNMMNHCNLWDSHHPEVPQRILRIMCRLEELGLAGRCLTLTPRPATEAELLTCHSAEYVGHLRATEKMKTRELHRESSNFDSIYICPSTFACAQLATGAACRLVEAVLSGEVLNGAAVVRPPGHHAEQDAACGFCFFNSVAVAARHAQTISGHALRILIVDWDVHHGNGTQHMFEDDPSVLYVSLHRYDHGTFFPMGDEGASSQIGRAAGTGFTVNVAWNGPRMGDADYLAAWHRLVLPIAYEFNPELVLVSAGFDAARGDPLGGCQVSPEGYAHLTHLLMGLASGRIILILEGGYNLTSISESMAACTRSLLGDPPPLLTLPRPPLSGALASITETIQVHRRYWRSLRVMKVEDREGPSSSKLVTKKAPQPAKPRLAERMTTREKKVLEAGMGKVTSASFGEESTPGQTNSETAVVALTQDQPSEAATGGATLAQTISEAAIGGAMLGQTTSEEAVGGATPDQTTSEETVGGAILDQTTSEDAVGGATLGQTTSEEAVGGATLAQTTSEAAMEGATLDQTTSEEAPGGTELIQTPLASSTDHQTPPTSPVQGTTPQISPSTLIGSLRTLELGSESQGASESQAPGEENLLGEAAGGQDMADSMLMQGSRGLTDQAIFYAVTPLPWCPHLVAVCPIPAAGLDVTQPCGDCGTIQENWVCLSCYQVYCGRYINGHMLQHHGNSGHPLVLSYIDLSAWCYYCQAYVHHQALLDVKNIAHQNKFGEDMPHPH
Description: Inhibition of HDAC6 (unknown origin)

[36] = target: T1, Histone deacetylase 1; test: biochemical
Description: Inhibition of recombinant human C-terminal His/FLAG-tagged HDAC1 (1 to 482 residues) expressed in Sf9 insect cells using Ac-peptide-AMC as substrate preincubated for 15 mins followed by addition of substrate and trypsin measured by flourescence assay

## Cc1cc(Nc2ncc(Cl)c(Nc3ccccc3S(=O)(=O)C(C)C)n2)c(OC(C)C)cc1C1CCNCC1 [CERITINIB]
[1]
  IC50: 370 nM
[2]
  IC50: 4080 nM
[3]
  IC50: 2660 nM
[4]
  IC50: 1980 nM
[5]
  IC50: 1820 nM
[6]
  viability at 1 µM: 90.2%
[7]
  Activity: 1.17%
[8]
  Activity: 7.07%
[9]
  Activity: 1.55%
[10]
  viability at 1 µM: 81.9%
[11]
  Activity: 2.07%
[12]
  Activity: 20.4%
[13]
  Activity: 11.77%

## CC(C)S(=O)(=O)c1ccccc1Nc1nc(Nc2cccc(NC(=O)CCCCCC(=O)NO)c2)ncc1Cl
[14]
  inhibition: 55%
[15]
  inhibition: 86%
[16]
  inhibition: 89.4%
[17]
  inhibition: 98%

## CC(C)S(=O)(=O)c1ccccc1Nc1nc(Nc2cccc(NC(=O)CCCC(=O)NO)c2)ncc1Cl
[14]
  inhibition: 38%
[15]
  inhibition: 83%
[16]
  inhibition: 87%
[17]
  inhibition: 98.1%

## COc1ccc(Nc2nc(Nc3ccc(NC(=O)CCCCCCC(=O)NO)cc3)ncc2Cl)cc1OC
[14]
  inhibition: 65%
[15]
  inhibition: 94%
[16]
  inhibition: 3.1%
[17]
  inhibition: 17.6%

## COc1cc(Nc2ncc(Cl)c(Nc3ccccc3S(=O)(=O)C(C)C)n2)ccc1C(=O)NCCCCCC(=O)NO
[14]
  inhibition: 26%
[15]
  inhibition: 74%
[16]
  inhibition: 99%
[17]
  inhibition: 101%

## CC(C)S(=O)(=O)c1ccccc1Nc1nc(Nc2cccc(C(=O)NCCCC(=O)NO)c2)ncc1Cl
[14]
  inhibition: 4%
[15]
  inhibition: 44%
[16]
  inhibition: 85.7%
[17]
  inhibition: 98%

## CC(C)S(=O)(=O)c1ccccc1Nc1nc(Nc2ccc(C(=O)NCCCCCCC(=O)NO)cc2)ncc1Cl
[18]
  IC50: 3420 nM
[1]
  IC50: 340 nM
[14]
  inhibition: 49%
[15]
  inhibition: 100%
[16]
  inhibition: 84.5%
[17]
  inhibition: 103%
[19]
  IC50: 15 nM
[20]
  IC50: 4.3 nM
[21]
  IC50: 2.4 nM
[22]
  IC50: 1 nM
[2]
  IC50: 910 nM
[3]
  IC50: 220 nM
[4]
  IC50: 180 nM
[5]
  IC50: 390 nM
[23]
  Ratio IC50: 3
[24]
  Ratio IC50: 3
[25]
  Ratio IC50: 3
[26]
  Ratio IC50: 3
[27]
  Ratio IC50: 3
[28]
  Ratio IC50: 3
[29]
  Ratio IC50: 3
[30]
  Ratio IC50: 3
[31]
  Ratio IC50: 3
[32]
  Ratio IC50: 3
[33]
  Ratio IC50: 3
[34]
  Ratio IC50: 3
[35]
  IC50: 6.7 nM
[36]
  IC50: 12 nM

## CC(C)S(=O)(=O)c1ccccc1Nc1nc(Nc2ccc(NC(=O)CCCCC(=O)NO)cc2)ncc1Cl
[14]
  inhibition: -8%
[15]
  inhibition: 20%
[16]
  inhibition: 84.7%
[17]
  inhibition: 99%

## CC(C)S(=O)(=O)c1ccccc1Nc1nc(Nc2ccc(C(=O)NCCCCC(=O)NO)cc2)ncc1Cl
[14]
  inhibition: 8%
[15]
  inhibition: 31%
[16]
  inhibition: 85.2%
[17]
  inhibition: 98.8%

## CC(C)S(=O)(=O)c1ccccc1Nc1nc(Nc2ccc(NC(=O)CCCCCC(=O)NO)cc2)ncc1Cl
[14]
  inhibition: 52%
[15]
  inhibition: 90%
[16]
  inhibition: 86.5%
[17]
  inhibition: 98.8%

## CC(C)S(=O)(=O)c1ccccc1Nc1nc(Nc2ccc(NC(=O)CCCC(=O)NO)cc2)ncc1Cl
[14]
  inhibition: 4%
[15]
  inhibition: 17%
[16]
  inhibition: 87.6%
[17]
  inhibition: 98.5%

## Cc1cc(Nc2ncc(Cl)c(Nc3ccccc3S(=O)(=O)C(C)C)n2)ccc1C(=O)NCCCCCC(=O)NO
[14]
  inhibition: 48%
[15]
  inhibition: 93%
[16]
  inhibition: 97.8%
[17]
  inhibition: 102%

## CC(C)S(=O)(=O)c1ccccc1Nc1nc(Nc2ccc(C(=O)NCCC(=O)NO)cc2)ncc1Cl
[14]
  inhibition: -1%
[15]
  inhibition: 3%
[16]
  inhibition: 86.7%
[17]
  inhibition: 97.3%
